In the supplement of paper PMC10307832:

Tests used:
Experiment in all cases: relative viability (nuclei count vs DMSO), 5 days (fraction); higher = more cells survive
DM3189 = compound: C1CN(CCN1)C2=CC=C(C=C2)C3=CN4C(=C(C=N4)C5=CC=NC6=CC=CC=C56)N=C3 [DM3189]
Method in brief: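 Hoechst staining, done together with fixation and permeabilisation, marked nuclei for 4× imaging and MetaXpress counting. This followed 5 days without medium change after lung cancer cell lines, kept overnight at 37 °C in 1536-well plates, were pinned with five library-drug doses (not always all listed) spaced by √10 on vehicle-anchored plates. Viability is the ratio of treated-well to vehicle-well nuclei, expressed as a median across plates. Plates passed only at control CV below 25% with at least one doubling.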

DM3189 + Navitoclax = compound: C1CN(CCN1)C2=CC=C(C=C2)C3=CN4C(=C(C=N4)C5=CC=NC6=CC=CC=C56)N=C3 [DM3189] + CC1(C)CCC(c2ccc(Cl)cc2)=C(CN2CCN(c3ccc(C(=O)NS(=O)(=O)c4ccc(N[C@H](CCN5CCOCC5)CSc5ccccc5)c(S(=O)(=O)C(F)(F)F)c4)cc3)CC2)C1 [Navitoclax] (partner 0.5 µM)
Method in brief: (§1)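 Medians of duplicate plates are given as relative viability. That measure is the nuclei count in treated wells divided by the count in vehicle wells. Counts were taken on 4× images of lung cancer cell lines in 1536-well plates, 5 days after pin-tool dosing the day after seeding with one drug alone or a fixed anchor-drug dose plus five library-drug doses (not always all listed) in √10 steps.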

DM3189 + Lapatinib = compound: C1CN(CCN1)C2=CC=C(C=C2)C3=CN4C(=C(C=N4)C5=CC=NC6=CC=CC=C56)N=C3 [DM3189] + CS(=O)(=O)CCNCc1ccc(-c2ccc3ncnc(Nc4ccc(OCc5cccc(F)c5)c(Cl)c4)c3c2)o1 [Lapatinib] (partner 2 µM)
Method in brief: as §1

DM3189 + Dasatinib = compound: C1CN(CCN1)C2=CC=C(C=C2)C3=CN4C(=C(C=N4)C5=CC=NC6=CC=CC=C56)N=C3 [DM3189] + Cc1nc(Nc2ncc(C(=O)Nc3c(C)cccc3Cl)s2)cc(N2CCN(CCO)CC2)n1 [Dasatinib] (partner 0.075 µM)
Method in brief: as §1

DM3189 + Vorinostat = compound: C1CN(CCN1)C2=CC=C(C=C2)C3=CN4C(=C(C=N4)C5=CC=NC6=CC=CC=C56)N=C3 [DM3189] + O=C(CCCCCCC(=O)Nc1ccccc1)NO [Vorinostat] (partner 1 µM)
Method in brief: as §1

Cell Line	relative viability (DM3189; 0.08 µM)	relative viability (DM3189; 0.253 µM)	relative viability (DM3189; 0.8 µM)	relative viability (DM3189; 2.53 µM)	relative viability (DM3189 + Navitoclax; first compound 0.08 µM)	relative viability (DM3189 + Navitoclax; first compound 0.253 µM)	relative viability (DM3189 + Navitoclax; first compound 0.8 µM)	relative viability (DM3189 + Navitoclax; first compound 2.53 µM)	relative viability (DM3189 + Lapatinib; first compound 0.08 µM)	relative viability (DM3189 + Lapatinib; first compound 0.253 µM)	relative viability (DM3189 + Lapatinib; first compound 0.8 µM)	relative viability (DM3189 + Lapatinib; first compound 2.53 µM)	relative viability (DM3189 + Dasatinib; first compound 0.08 µM)	relative viability (DM3189 + Dasatinib; first compound 0.253 µM)	relative viability (DM3189 + Dasatinib; first compound 0.8 µM)	relative viability (DM3189 + Dasatinib; first compound 2.53 µM)	relative viability (DM3189 + Vorinostat; first compound 0.08 µM)	relative viability (DM3189 + Vorinostat; first compound 0.253 µM)	relative viability (DM3189 + Vorinostat; first compound 0.8 µM)	relative viability (DM3189 + Vorinostat; first compound 2.53 µM)
NCI-H2023	1	0.955	0.978	0.854	0.992	1.04	0.909	0.842	1.1	0.739	0.503	0.286	0.781	0.595	0.363	0.46	0.688	0.618	0.603	0.604
NCI-H2347	1.2	1.03	0.945	1.02	0.861	0.819	0.743	0.763	1.09	0.866	0.703	0.97	0.261	0.384	0.341	0.284	0.554	0.626	0.61	0.658
NCI-H838	0.978	0.909	0.764	0.922	1.15	1.09	0.904	1.23	1.1	0.867	0.65	0.897	0.346	0.303	0.261	0.274	0.757	0.675	0.65	0.733
NCI-H1355	1.01	0.968	0.842	0.951	0.926	0.953	0.819	0.951	1.07	0.972	0.819	0.919	0.788	0.706	0.474	0.633	0.64	0.636	0.504	0.565
